Molecular target: T1, synthetic Aβ1-42 aggregates (Homo sapiens, UniProt P05067)
T1 construct: synthetic Aβ1-42 aggregates
Experiment: FCS measurement of association of the probe Aβ1-42-Cy2 to Aβ1-42 aggregates in the presence of a suspected active substance (screening model)
Format: biochemical
From the text: A screening method for detecting active substances for the treatment of diseases associated with pathological protein depositions, which is analogous with the method according to the invention, is based on the fact that the association of substructures of the pathological protein depositions, structures forming pathological protein depositions, structures corresponding to pathological protein depositions and/or pathological protein depositions to substructures of the pathological protein depositions, structures forming pathological protein depositions, structures corresponding to pathological protein depositions as targets is measured in the presence of suspected active substances. As an alternative, association of substructures of pathological protein depositions, structures forming pathological protein depositions, structures corresponding to pathological protein depositions and/or pathological protein depositions to substructures of the pathological protein depositions, structures forming pathological protein depositions, structures corresponding to pathological protein depositions as targets is first performed, and then the reversal of the association under the action of suspected active substances is observed. Then, those compounds are identified as active substances which are capable of causing a reversal of the association in a significant way. […]

T1 sequence (P05067 672-713 limits assumed): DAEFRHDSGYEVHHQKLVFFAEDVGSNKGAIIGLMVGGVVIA

For `Nc1c(/N=N/c2ccc(-c3ccc(/N=N/c4cc(S(=O)(=O)O)c5ccccc5c4N)cc3)cc2)cc(S(=O)(=O)O)c2ccccc12` [Congo red], which “detectable peaks as compared to the control batch” value (1 mM Congo red, FCS, 20 measurements each with one minute of measuring time, FIG. 13 bottom vs top) is on record?
The value was “significant decrease of the detectable peaks”.

What about the activity at 1000 µM (read-out: decrease of the signal intensity of the homologous association to) of the same compound?
The activity at 1000 µM was 20%.
